Source: US20160047819A1, “METHOD FOR DIAGNOSING VAGINAL INFECTIONS” (priority 2013, published 2016)

Test system: microbial proteins in vaginal fluid
Experiment: MS/MS proteomic analysis of vaginal fluid pools before and after rifaximin/placebo treatment: microbial proteins
Format: in vivo
Protocol: Proteomic analysis was performed on 9 pools of vaginal isolates, grouped according to the status of the BV infection: • H pool (from 41 healthy women); BV pool (from 39 BV-affected women); • A-R pool (from 2 women who were in remission after rifaximin treatment-group A); • A-N pool (from 8 women who were not in remission after rifaximin treatment-group A); • B-R pool (from 5 women who were in remission after rifaximin treatment-group B); • B-N pool (from 5 women who were not in remission after rifaximin treatment-group B); • C-R pool (from 4 women who were in remission after rifaximin treatment-group C); • C-N (from 5 women who were not in remission after rifaximin treatment-group C); • D-N (from 10 women who were not in remission after placebo treatment-group D). Scheme of the vaginal fluids collected for testing the diagnostic method is represented in FIG. 1.
In these figures are reported the peptides in the fractionated pools of healthy women, women affected by BV and peptides of women treated with rifaximin. The treatment with rifaximin was at dosage of 100 mg/day for 5 days; (remission, A-R; no remission, A-N), 25 mg/5 days (remission, B-R; no remission, B-N), 100 mg/2 days (remission, C-R; no remission, C-N), and placebo for 5 days (D-N). Two types of comparisons were carried out: (i) between fractionated pools of proteins from vaginal fluid of healthy women (HF) versus fractionated pool of proteins from vaginal fluid of women affected by bacterial vaginosis (BVF); (ii) between whole pools of proteins from vaginal fluid of women affected by BV treated by administering different doses of rifaximin or placebo before (BV) and after (A-R, A-N, B-R, B-N, C-R, C-N, D-N) treatment. Fractioned pools of proteins are obtained, e.g., by separating the proteins by separation on membrane filtration with different membrane porosity, prior to MS/MS analysis.
Nine volumes of acetone: HCl (10:1) were added to the supernatant of the vaginal rinsing and proteins were precipitated by centrifuging at 12000 g for 10 min. The protein pellet was dissolved in 1 mL of 70% ethanol and the sample was spun at 12000 g for 10 min. One mL of acetone was added and the proteins were further precipitated by centrifugation at 12000 g for 5 min. After removing supernatant, pellet was dried by SpeedVac concentrator (Thermo Savant ISS110, Thermo Fisher Scientific, Waltham, Mass.) and then stored at −20° C.
Protein extract was quantified using the 2-D Quant Kit (GE Healthcare, Uppsala, Sweden) according to the manufacturer's instructions.
Patients who were diagnosed for BV at the study visit V1 were included in a multicentre, double-blind, randomised, placebo-controlled study (EudraCT: 2009-011826-32), that was performed to compare the efficacy of different doses of rifaximin vaginal tablets versus placebo for the treatment of BV. The patients underwent a randomisation visit and were distributed into 4 treatment groups: group A received 100 mg rifaximin vaginal tablet once daily for 5 days (n=10), group B received 25 mg rifaximin vaginal tablet once daily for 5 days (n=10), group C received 100 mg rifaximin vaginal tablet once daily for the first 2 days and placebo vaginal tablet for the remaining 3 days (n=9), group D received placebo vaginal tablet once daily for 5 days (n=10). Study medication was administered intra-vaginally at bedtime. After 7 to 10 days from the end of the therapy a follow-up visit (V3) was performed. Remission was evaluated at V3 according to Amsel's criteria (<3) and Gram stain Nugent score (≦3) (Table 1).
Standardized vaginal rinsings with 2 mL of saline were collected for analysis at V1 and V3 by flushing and re-aspirating the fluid through a 22 Gauge needle in the left, central and right upper vaginal vaults. The vaginal rinsings were subsequently stored at −80° C. until use.
MS/MS analysis was carried out for H and BV pools and for the whole BV, A-R, A-N, B-R, B-N, C-R, C-N and D-N pools containing 50 μg of protein each. […]

[1] = up-regulated in all pools (rifaximin and placebo) vs BV

SMILES: CO[C@H]1/C=C/O[C@@]2(C)Oc3c(C)c(O)c4c(O)c(c5c(nc6cc(C)ccn65)c4c3C2=O)NC(=O)/C(C)=C\C=C\[C@H](C)[C@H](O)[C@@H](C)[C@@H](O)[C@@H](C)[C@H](OC(C)=O)[C@@H]1C [rifaximin]
- fold change of Phosphoglycerate kinase from L. gasseri (A-R pool, over-expressed in A-N, B-R, C-R and D-N pools): −22.1 fold
- expression change of Pyruvate kinase from L. delbrueckii subsp. bulgaricus (affected only in A-R pool): 1.5 ratio
- expression change of Triosephosphate isomerase from L. delbrueckii subsp. bulgaricus (affected only in B-N pool): 2.4 ratio
- median expression change of trigger factor from L. brevis (down-regulated in all pools after rifaximin treatment): −2.5 ratio
- Ratio X/H Ribosome-recycling factor OS = Bifidobacterium longum subsp. infantis (B7GQS1) (pool A-N after treatment): −1.2
- Ratio X/H Trigger factor OS = Lactobacillus brevis (Q03QN6) (pool A-N after treatment): −2.4
- Ratio X/H Triosephosphate isomerase OS = Lactobacillus delbrueckii subsp. bulgaricus (Q1GB25) (pool A-N after treatment): −1.2
- Ratio X/H UPF0082 protein SAB0618 OS = Staphylococcus aureus (Q2YSR2) (pool A-N after treatment): 5.6
- Ratio X/H Uncharacterized membrane protein YAL018C OS = Saccharomyces cerevisiae (P31379) (pool A-N after treatment): 2.0
- Ratio X/H Uncharacterized protein yphG OS = Escherichia coli (P76585) (pool A-N after treatment): −4.3
- Ratio X/H Ribosome-recycling factor OS = Bifidobacterium longum subsp. infantis (B7GQS1) (pool A-R after treatment): −4.5
- Ratio X/H Trigger factor OS = Lactobacillus brevis (Q03QN6) (pool A-R after treatment): −3.8
- Ratio X/H Triosephosphate isomerase OS = Lactobacillus delbrueckii subsp. bulgaricus (Q1GB25) (pool A-R after treatment): −1.3
- Ratio X/H UPF0082 protein SAB0618 OS = Staphylococcus aureus (Q2YSR2) (pool A-R after treatment): 9.3
- Ratio X/H Uncharacterized membrane protein YAL018C OS = Saccharomyces cerevisiae (P31379) (pool A-R after treatment): 1.1
- Ratio X/H Uncharacterized protein yphG OS = Escherichia coli (P76585) (pool A-R after treatment): 1.1
- Ratio X/H Ribosome-recycling factor OS = Bifidobacterium longum subsp. infantis (B7GQS1) (pool B-N after treatment): −1.1
- Ratio X/H Trigger factor OS = Lactobacillus brevis (Q03QN6) (pool B-N after treatment): −2.1
- Ratio X/H Triosephosphate isomerase OS = Lactobacillus delbrueckii subsp. bulgaricus (Q1GB25) (pool B-N after treatment): 2.4
- Ratio X/H UPF0082 protein SAB0618 OS = Staphylococcus aureus (Q2YSR2) (pool B-N after treatment): 9.2
- Ratio X/H Uncharacterized membrane protein YAL018C OS = Saccharomyces cerevisiae (P31379) (pool B-N after treatment): 2.0
- Ratio X/H Uncharacterized protein yphG OS = Escherichia coli (P76585) (pool B-N after treatment): −1.1
- Ratio X/H Ribosome-recycling factor OS = Bifidobacterium longum subsp. infantis (B7GQS1) (pool B-R after treatment): −2.4
- Ratio X/H Trigger factor OS = Lactobacillus brevis (Q03QN6) (pool B-R after treatment): −2.2
- Ratio X/H Triosephosphate isomerase OS = Lactobacillus delbrueckii subsp. bulgaricus (Q1GB25) (pool B-R after treatment): −1.2
- Ratio X/H UPF0082 protein SAB0618 OS = Staphylococcus aureus (Q2YSR2) (pool B-R after treatment): 10.5
- Ratio X/H Uncharacterized membrane protein YAL018C OS = Saccharomyces cerevisiae (P31379) (pool B-R after treatment): 2.9
- Ratio X/H Uncharacterized protein yphG OS = Escherichia coli (P76585) (pool B-R after treatment): 1.1
- Ratio X/H Ribosome-recycling factor OS = Bifidobacterium longum subsp. infantis (B7GQS1) (pool C-N after treatment): 1.0
- Ratio X/H Trigger factor OS = Lactobacillus brevis (Q03QN6) (pool C-N after treatment): −3.2
- Ratio X/H Triosephosphate isomerase OS = Lactobacillus delbrueckii subsp. bulgaricus (Q1GB25) (pool C-N after treatment): −1.3
- Ratio X/H UPF0082 protein SAB0618 OS = Staphylococcus aureus (Q2YSR2) (pool C-N after treatment): 5.9
- Ratio X/H Uncharacterized membrane protein YAL018C OS = Saccharomyces cerevisiae (P31379) (pool C-N after treatment): 4.2
- Ratio X/H Uncharacterized protein yphG OS = Escherichia coli (P76585) (pool C-N after treatment): −1.1
- Ratio X/H Ribosome-recycling factor OS = Bifidobacterium longum subsp. infantis (B7GQS1) (pool C-R after treatment): −2.8
- Ratio X/H Trigger factor OS = Lactobacillus brevis (Q03QN6) (pool C-R after treatment): −2.7
- Ratio X/H Triosephosphate isomerase OS = Lactobacillus delbrueckii subsp. bulgaricus (Q1GB25) (pool C-R after treatment): −1.4
- Ratio X/H UPF0082 protein SAB0618 OS = Staphylococcus aureus (Q2YSR2) (pool C-R after treatment): 8.9
- Ratio X/H Uncharacterized membrane protein YAL018C OS = Saccharomyces cerevisiae (P31379) (pool C-R after treatment): −1.6
- Ratio X/H Uncharacterized protein yphG OS = Escherichia coli (P76585) (pool C-R after treatment): 1.0
- median down-regulation of Malate dehydrogenase from S. cerevisiae (pools after treatment vs BV): −2.3 fold
- median expression change of enolases from L. acidophilus, L. delbrueckii subsp. bulgaricus, L. gasseri (trend of down-regulation in response to antibiotic administration): −2.7 ratio
- median expression change of Phosphoglycerate kinase from U. parvum [1]: 5.1 ratio
- median expression change of UPF0082 protein SAB0618 from S. aureus [1]: 8.9 ratio
